We go through 18 compounds from patent US6656911B2, “Serine protease inhibitors” (Cortech, Inc., priority 1994, dated 2003).

The target in this assay is T1, elastase derived from human sputum (HSE) (Homo sapiens, UniProt P08246).
T1 construct: prepared from commercially available HSE (875 U/mg protein, SE-563, Elastin Product Co., Inc., Missouri, USA); purchased Elastin Product Co., Inc., Missouri, USA SE-563; host or cells: human sputum (natural enzyme)
T1 sequence (P08246 30-247 limits assumed): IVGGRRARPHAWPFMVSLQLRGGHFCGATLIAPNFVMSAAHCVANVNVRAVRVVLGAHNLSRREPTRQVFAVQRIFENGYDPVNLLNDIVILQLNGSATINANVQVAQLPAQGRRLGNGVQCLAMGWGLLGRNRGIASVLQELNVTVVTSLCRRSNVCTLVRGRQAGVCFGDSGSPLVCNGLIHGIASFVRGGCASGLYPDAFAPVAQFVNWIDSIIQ
Nature of the assay: In vitro inhibition of elastase (ONO-PO series). To be noted: substrate N-methoxysuccinyl-Ala-Ala-Pro-Val-p-nitroaniline, 37° C., pH 8.0, IC50 converted to Ki by Dixson plot. The class given is biochemical.
Compound `CC(C)[C@H](NC(=O)Cn1c(-c2ccccc2)ncc(N)c1=O)C(=O)c1nnc(C(C)(C)c2ccccc2)o1` [ONO-PO-711, 2-[5-Amino-6-oxo-2-phenyl-1,6-dihydro-1-pyrimidinyl]-N-[1-(2-[5-(α,α-dimethylbenzyl)-1,3,4-oxadiazolyl]carbonyl)-2-(S)-methylpropyl]acetamide] came in with a Ki of 2.55 nM.

For the compound `CC(C)[C@H](NC(=O)Cn1c(-c2cccnc2)ncc(N)c1=O)C(=O)c1nnc(C(C)(C)C)o1` [ONO-PO-712, 2-[5-Amino-6-oxo-2-(3-pyridyl)-1,6-dihydro-1-pyrimidinyl]-N-[1-(2-[5-tert-butyl-1,3,4-oxadiazolyl]carbonyl)-2-(S)-methylpropyl]acetamide], the Ki stood at 16.6 nM.

Turning to `CC(C)[C@H](NC(=O)[C@@H]1CCCN1C(=O)[C@@H](NS(C)(=O)=O)C(C)C)C(=O)c1nnc(C(C)(C)C)o1` [ONO-PO-713], the Ki was found to be 12 nM.

In turn, `CC(C)[C@H](NC(=O)Cn1c(-c2cccnc2)ncc(N)c1=O)C(=O)c1nnc(C(C)(C)c2ccccc2)o1` [ONO-PO-715, 2-[5-Amino-6-oxo-2-(3-pyridyl)-1,6-dihydro-1-pyrimidinyl]-N-[1-(2-[5-(α,α-dimethylbenzyl)-1,3,4-oxadiazolyl]carbonyl)-2-(S)-methylpropyl]acetamide] gave an inhibitory constant (Ki) of 3.54 nM.

The compound `CC(C)[C@H](NC(=O)CN1C(=O)CN=C(c2ccc(Cl)cc2)c2ccccc21)C(=O)c1nnc(C(C)(C)C)o1` [ONO-PO-717, 2-Oxo-5-(4-chlorophenyl)-1,4-benzodiazepine-N-[1-(2-[5-tert-butyl-1,3,4-oxadiazolyl]carbonyl)-2-(S)-methylpropyl]acetamide] showed a Ki of 57.8 nM.

`CC(C)[C@H](NC(=O)CN1C(=O)N[C@H](C(C)C)C1=O)C(=O)c1nnc(C(C)(C)C)o1` [ONO-PO-719, 4-(R)-Isopropyl-2,5-imidazolidinedione-N-[1-(2-[5-tert-butyl-1,3,4-oxadiazolyl]carbonyl)-2-(S)-methylpropyl]acetamide] returned a Ki of 836 nM.

The compound `CC(C)[C@H](NC(=O)CN1C(=O)N[C@H](C(C)C)C1=O)C(=O)c1nnc(C(C)(C)c2ccccc2)o1` [ONO-PO-720, 4-(R)-Isopropyl-2,5-imidazolidinedione-N-[1-(2-[5-(α,α-dimethylbenzyl)-1,3,4-oxadiazolyl]carbonyl)-2-(S)-methylpropyl]acetamide] yielded a Ki of 25.9 nM.

Consider `CC(C)[C@H](NC(=O)Cn1c(-c2ccc(F)cc2)nccc1=O)C(=O)c1nnc(C(C)(C)c2ccccc2)o1` [ONO-PO-722, 2-[6-Oxo-2-(4-fluorophenyl)-1,6-dihydro-1-pyrimidinyl]-N-[1-(2-[5-(α,α-dimethylbenzyl)-1,3,4-oxadiazolyl]carbonyl)-2-(S)-methylpropyl]acetamide], for which the affinity corresponds to a Ki of 3.35 nM.

Regarding `CC(C)[C@H](NC(=O)CN1C(=O)N[C@H](Cc2c[nH]c3ccccc23)C1=O)C(=O)c1nnc(C(C)(C)C)o1` [ONO-PO-723, 4-(R)-(3-Indolemethylene)-2,5-imidazolidinedione-N-[1-(2-[5-tert-butyl-1,3,4-oxadiazolyl]carbonyl)-2-(S)-methylpropyl]acetamide], the Ki is 163 nM.

In the case of `CC(C)[C@H](NC(=O)CN1C(=O)N[C@H](Cc2c[nH]c3ccccc23)C1=O)C(=O)c1nnc(C(C)(C)c2ccccc2)o1` [ONO-PO-724, 4-(R)-(3-Indolemethylene)-2,5-imidazolidinedione-N-[1-(2-[5-(α,α-dimethylbenzyl)-1,3,4-oxadiazolyl]carbonyl)-2-(S)-methylpropyl]acetamide], the affinity, expressed as Ki, was 14.4 nM.

Consider `CC(C)[C@H](NC(=O)Cn1c(-c2ccccc2)cccc1=O)C(=O)c1nnc(C(C)(C)C)o1` [ONO-PO-725, 2-[6-Oxo-2-phenyl-1,6-dihydro-1-pyridinyl]-N-[1-(2-[5-tert-butyl-1,3,4-oxadiazolyl]carbonyl)-2-(S)-methylpropyl]acetamide], for which the Ki stood at 4280 nM.

In turn, `CC(C)[C@H](NC(=O)Cn1c(-c2ccccc2)cccc1=O)C(=O)c1nnc(C(C)(C)c2ccccc2)o1` [ONO-PO-726, 2-[6-Oxo-2-phenyl-1,6-dihydro-1-pyridinyl]-N-[1-(2-[5-(α,α-dimethylbenzyl)-1,3,4-oxadiazolyl]carbonyl)-2-(S)-methylpropyl]acetamide] displayed a Ki of 590 nM.

Compound `CC(C)[C@H](NC(=O)Cn1c(-c2ccccc2)ncc(N)c1=O)C(=O)c1nnc(C2(C)CC2)o1` [ONO-PO-728, 2-[5-Amino-6-oxo-2-phenyl-1,6-dihydro-1-pyrimidinyl]-N-[1-(2-[5-(1-methylcyclopropyl)-1,3,4-oxadiazolyl]carbonyl)-2-(S)-methylpropyl]acetamide] gave a Ki of 8.75 nM.

`CC(C)[C@H](NC(=O)Cn1c(-c2ccccc2)nccc1=O)C(=O)c1nnc(C(C)(C)C)o1` [ONO-PO-730, 2-[6-Oxo-2-phenyl-1,6-dihydro-1-pyrimidinyl]-N-[1-(2-[5-tert-butyl-1,3,4-oxadiazolyl]carbonyl)-2-(S)-methylpropyl]acetamide] returned a Ki of 23.5 nM.

`CC(C)[C@H](NC(=O)Cn1c(-c2ccccc2)nccc1=O)C(=O)c1nnc(C(C)(C)c2ccccc2)o1` [ONO-PO-731, 2-[6-Oxo-2-phenyl-1,6-dihydro-1-pyrimidinyl]-N-[1-(2-[5-α,α-dimethylbenzyl-1,3,4-oxadiazolyl]carbonyl)-2-(S)-methylpropyl]acetamide] displayed a Ki of 4.02 nM.

With `CC(C)[C@@H](NC(=O)Cn1c(-c2ccccc2)nccc1=O)C(=O)c1nnc(C(C)(C)C)o1` [ONO-PO-732, 2-[6-Oxo-2-phenyl-1,6-dihydro-1-pyrimidinyl]-N-[1-(2-[5-tert-butyl-1,3,4-oxadiazolyl]carbonyl)-2-(R)-methylpropyl]acetamide], the Ki stood at 62.2 nM.

`CC(C)[C@H](NC(=O)Cn1c(-c2ccc(F)cc2)nccc1=O)C(=O)c1nnc(C2(C)CC2)o1` [ONO-PO-734, 2-[6-Oxo-2-(4-fluorophenyl)-1,6-dihydro-1-pyrimidinyl]-N-[1-(2-[5-(1-methylcyclopropyl)-1,3,4-oxadiazolyl]carbonyl)-2-(S)-methylpropyl]acetamide] came in with a Ki of 43.8 nM.

Regarding `CC(C)[C@H](NC(=O)Cn1c(-c2ccccc2)nccc1=O)C(=O)c1nnc(C2(C)CC2)o1` [ONO-PO-735, 2-[6-Oxo-2-phenyl-1,6-dihydro-1-pyrimidinyl]-N-[1-(2-[5-(1-methylcyclopropyl)-1,3,4-oxadiazolyl]carbonyl)-2-(S)-methylpropyl]acetamide], the Ki was found to be 26.4 nM.
